Measured values as given in patent US4661505A, “Leukotriene antagonists” (Eli Lilly and Company, priority 1982, dated 1987).
Structures can show the parent of a compound that is named as a salt.

Biological target: T1, LTD4 evoked ileal contractions (Cavia porcellus, UniProt Q2NNR5)
T1 construct: A section of terminal ileum was removed, the lumen cleaned, and the tissue divided into 2.5 cm. segments; from tissue; host or cells: terminal ileum of male Hartley guinea pigs
T1 sequence (Q2NNR5 1-340): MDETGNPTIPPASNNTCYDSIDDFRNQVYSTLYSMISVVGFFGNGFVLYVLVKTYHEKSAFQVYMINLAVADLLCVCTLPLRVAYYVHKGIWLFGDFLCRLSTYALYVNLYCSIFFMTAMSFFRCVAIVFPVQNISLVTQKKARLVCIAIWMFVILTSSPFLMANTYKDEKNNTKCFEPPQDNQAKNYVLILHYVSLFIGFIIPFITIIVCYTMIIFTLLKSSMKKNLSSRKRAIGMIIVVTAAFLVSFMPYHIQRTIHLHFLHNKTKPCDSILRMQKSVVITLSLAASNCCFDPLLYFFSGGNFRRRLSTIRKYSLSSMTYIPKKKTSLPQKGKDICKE
Assay: Antagonism of LTD4-evoked contraction of isolated guinea pig ileum (single concentration)
Format: cell-based
Details: pure LTD4, 5 minute exposure, read-out: Percent Inhibition of LTD4 evoked ileal contractions; for inhibition at 1 µM: 1 × 10^-6 M; for inhibition at 3 µM: 3 × 10^-6 M; for inhibition at 10 µM: 1 × 10^-5 M
Protocol: Male, Hartley guinea pigs weighing 200-450 grams were killed by decapitation. A section of terminal ileum was removed, the lumen cleaned, and the tissue divided into 2.5 cm. segments. The ilea were mounted in 10 ml. tissue baths containing Krebs-bicarbonate solution of the following composition in mmoles/liter: KCl, 4.6; CaCl2.2H2 O, 1.2; KH2 PO4, 1.2; MgSO4.7H2 O, 1.2; NaCl, 118.2; NaHCO3, 24.8 and dextrose, 10.0. The bath fluid was maintained at 37° C. and aerated with 95 percent oxygen and 5 percent CO2. In addition, the buffer contained 1×10^-6 M atropine to reduce ileal spontaneous activity. In studies with crude SRS-A, 1×10^-6M pyrilamine was used to mitigate the actions of histamine present along with the biologically active leukotrienes. Isometric measurements were made with a Grass FTO3C force-displacement transducer and recorded on a Grass polygraph as change in grams of force. A passive force of 0.5 g. was applied to the tissues. After an appropriate equilibration period, single submaximal control responses to either SRS-A or pure LTD4 were obtained. Following a 5 minute exposure of the ileum to an experimental drug, the control concentration of SRS-A or LTD4 was added to the tissue bath. The response of the ileum to SRS-A or LTD4 in the presence of the drug was compared to the response in the absence of the drug.
*Compounds marked with an asterisk were tested using crude SRSA as the
ileumcontracting agent; all other compounds were tested using pure

| SMILES | inhibition at 1 µM [%] | inhibition at 3 µM [%] | inhibition at 10 µM [%] |
| --- | --- | --- | --- |
| CCCc1c(OCCCCC(=O)N(C)C)ccc(C(C)=O)c1O [Example 56, N,N-dimethyl-5-(4-acetyl-3-hydroxy-2-propylphenoxy)pentanoic acid amide] | 17 | 42 | – |
| C=CCc1c(OCCCCCC(=O)O)ccc(C(C)=O)c1O [Example 26, 6-(4-Acetyl-3-hydroxy-2-allylphenoxy)-hexanoic acid] | – | 29 | – |
| CCCc1c(OCCCCCCO)ccc(C(C)=O)c1O [Example 42, 6-(4-Acetyl-3-hydroxy-2-propylphenoxy)-1-hexanol] | – | 46 | 74 |
| CC(=O)c1ccc(OC(CCCCC(=O)O)c2ccc(Cc3ccccc3)cc2)cc1O (stereo not shown) [Example 16, 6-(4-Acetyl-3-hydroxyphenoxy)-6-(4-benzylphenyl)hexanoic acid] | – | 70 | 86 |
| CCCc1c(OCCCCCCN2CCN(C)CC2)ccc(C(C)=O)c1O [Example 37, N-Methyl-N'-[6-(4-acetyl-3-hydroxy-2-propylphenoxy)hexyl]piperazine dihydrochloride] | – | 32 | 78 |
| CCCc1c(OCCCc2nnn[nH]2)ccc(C(C)=O)c1O [Example 23, 5-[3-(4-Acetyl-3-hydroxy-2-propylphenoxy)propyl]-tetrazole] | 15 | – | – |
| CCCc1c(OCCCCCCCSc2nn[nH]n2)ccc(C(C)=O)c1O [Example 72, 5-[7-(4-Acetyl-3-hydroxy-2-propylphenoxy)heptanethio]-tetrazole] | 100 | – | – |
| CCCc1c(OCCCCCc2nnnn2CC(=O)O)ccc(C(C)=O)c1O [Example 50, 5-(1H)-[5-(4-Acetyl-3-hydroxy-2-propylphenoxy)pentyl]-1-tetrazolylacetic acid] | 66 | – | – |
| CCCc1c(OCCCCC(C)(C)c2nnn[nH]2)ccc(C(C)=O)c1O [Example 39, 5-[5-(4-Acetyl-3-hydroxy-2-propylphenoxy)-1,1-dimethylpentyl]-tetrazole] | 89 | – | – |
| CCCc1c(OCCCCC(=O)NO)ccc(C(C)=O)c1O [Example 61, 5-(4-Acetyl-3-hydroxy-2-propylphenoxy)pentanehydroxamic acid] | 28 | 70 | – |
| CC(=O)c1ccc(OCCCCC(C)(C)C(=O)O)cc1O [Example 47, 6-(4-Acetyl-3-hydroxyphenoxy)-2,2-dimethylhexanoic acid] | – | – | 22 |
| CCCc1c(OCCCCCCC(=O)O)ccc(C(C)=O)c1O [Example 29, 7-(4-Acetyl-3-hydroxy-2-propylphenoxy)heptanoic acid] | 43 | – | 84 |
| CCCc1c(OCCCCCCSc2nn[nH]n2)ccc(C(C)=O)c1O [Example 71, 5-[6-(4-Acetyl-3-hydroxy-2-propylphenoxy)hexanethio]-tetrazole] | 95 | – | 100 |
| CCCc1c(OCCCCCc2nnnn2C)ccc(C(C)=O)c1O [Example 52, 1-Methyl-5-(1H)-[5-(4-acetyl-3-hydroxy-2-propylphenoxy)pentyl]-tetrazole] | 38 | – | – |
| CCCc1c(OCCCCCCN)ccc(C(C)=O)c1O [Example 36, 6-(4-Acetyl-3-hydroxy-2-propylphenoxy)hexylamine hydrochloride] | 26 | 42 | – |
| CC(=O)c1ccc(OC(CCCCC(=O)O)c2ccc(-c3ccccc3)cc2)cc1O (stereo not shown) [Example 18, 6-(4-Acetyl-3-hydroxyphenoxy)-6-(4-biphenyl)hexanoic acid] | – | 34 | – |
| COC(=O)C(C)(C)CCCCOc1ccc(C(C)=O)c(O)c1 [Example 46, Methyl 6-(4-acetyl-3-hydroxyphenoxy)-2,2-dimethylhexanoate] | – | – | 23 |
| CCCc1c(OCCCSC(=N)N)ccc(C(C)=O)c1O [Example 60, S-[3-(4-Acetyl-3-hydroxy-2-propylphenoxy)propyl]-isothiuronium hydrobromide] | 28 | 55 | – |

| SMILES | inhibition at 1 µM [%] | inhibition at 3 µM [%] | inhibition at 10 µM [%] |
| --- | --- | --- | --- |
| CCCc1c(OCCCCCCCCCCC(=O)O)ccc(C(C)=O)c1O [Example 33, 11-(4-Acetyl-3-hydroxy-2-propylphenoxy)undecanoic acid] | – | 79 | 92 |
| CCCc1c(OC(CCCCC(=O)O)c2ccccc2)ccc(C(C)=O)c1O (stereo not shown) [Example 19, 6-(4-Acetyl-3-hydroxy-2-propylphenoxy)-6-phenylhexanoic acid] | – | 35 | 64 |
| CC(=O)c1ccc(OC(C)CCCCC(=O)O)cc1O (stereo not shown) [Example 41, 6-(4-Acetyl-3-hydroxyphenoxy)heptanoic acid] | – | 10 | – |
| CCCc1c(OC(CCCCC(=O)O)c2ccc(Cc3ccccc3)cc2)ccc(C(C)=O)c1O (stereo not shown) [Example 15, 6-(4-Acetyl-3-hydroxy-2-propylphenoxy)-6-(4-benzylphenyl)hexanoic acid] | – | – | 37 |
| CCCC(CCCCC(=O)O)Oc1ccc(C(C)=O)c(O)c1 (stereo not shown) [Example 49, 6-(4-Acetyl-3-hydroxyphenoxy)nonanoic acid] | – | – | 18 |
| CCCc1c(OCCCCC(=O)OCC)ccc(C(C)=O)c1O [Example 54, Ethyl 5-(4-acetyl-3-hydroxy-2-propylphenoxy)pentanoate] | 40 | 56 | – |
| CCCc1c(OCCCCc2nnn[nH]2)ccc(C(=O)c2ccccc2)c1O [Example 43, 5-[4-(4-Benzoyl-3-hydroxy-2-propylphenoxy)butyl]-tetrazole] | 34 | 56 | – |
| CCCc1c(OCCCCCCCCCCCCc2nnn[nH]2)ccc(C(C)=O)c1O [Example 14, 5-[12-(4-Acetyl-3-hydroxy-2-propylphenoxy)dodecyl]-tetrazole] | 22 | 47 | – |
| CCCc1c(OCCCCCCN(C)C)ccc(C(C)=O)c1O [Example 38, N,N-Dimethyl-[6-(4-acetyl-3-hydroxy-2-propylphenoxy)hexyl]amine hydrochloride] | – | 30 | 60 |
| CCCc1c(OCCCCC(N)=O)ccc(C(C)=O)c1O [Example 55, 5-(4-Acetyl-3-hydroxy-2-propylphenoxy)pentanoic acid amide] | 28 | 59 | – |
| CCCc1c(OCCCCCCN2CCOCC2)ccc(C(C)=O)c1O [Example 35, N-[6-(4-Acetyl-3-hydroxy-2-propylphenoxy)hexyl]morpholine hydrochloride] | – | 47 | 80 |
| CCCc1c(OCCCCC(C)(C)C(=O)OC)ccc(C(C)=O)c1O [Example 44, Methyl 6-(4-acetyl-3-hydroxy-2-propylphenoxy)-2,2-dimethylhexanoate] | – | 55 | – |
| CCCc1c(OCCCCCc2nnn(CC(=O)O)n2)ccc(C(C)=O)c1O [Example 51, 5-(2H)-[5-(4-acetyl-3-hydroxy-2-propylphenoxy)pentyl]-2-tetrazolylacetic acid] | 69 | – | – |
| CCCc1c(OCCCCCCCCCC(=O)O)ccc(C(C)=O)c1O [Example 32, 10-(4-Acetyl-3-hydroxy-2-propylphenoxy)decanoic acid] | 46 | 85 | 92 |
| CCCc1c(OC(CCC)CCCCC(=O)O)ccc(C(C)=O)c1O (stereo not shown) [Example 48, 6-(4-Acetyl-3-hydroxy-2-propylphenoxy)nonanoic acid] | – | – | 34 |
| CCCc1c(OCCCCc2nnn[nH]2)ccc(C(C)=O)c1O [Example 8, 5-[4-(4-Acetyl-3-hydroxy-2-propylphenoxy)butyl]-tetrazole] | 89 | 100 | – |
| CCCc1c(OCCCCCCCC(=O)O)ccc(C(C)=O)c1O [Example 30, 8-(4-Acetyl-3-hydroxy-2-propylphenoxy)octanoic acid] | 62 | – | 94 |
| CCCc1c(OCCCCC(C)(C)C(=O)O)ccc(C(C)=O)c1O [Example 45, 6-(4-Acetyl-3-hydroxy-2-propylphenoxy)-2,2-dimethylhexanoic acid] | – | 73 | 94 |
